Assays:
[1] = test system: rats infused with angiotensin II; experiment: Vasoconstriction hypertension model (angiotensin II infusion), urinary angiotensinogen excretion and hypertension; format: in vivo, rat; conditions: for angiotensinogen excretion (in words): angiotensin II treated rats, compared with Sham rats; for UAGT (Final) / UAGT (Initial): male rats, angiotensin infusion model; for UAGT (Final): final measurement, Sham 2.4 ± 0.5; for UAGT (Initial): initial measurement
Protocol: (§1) Tests were performed to determine whether nonpregnant rats of one of two models of human essential hypertension would create a problem with respect to the other model. More specifically, a volume expansion model included taking out one kidney, thereby accelerating the process of developing hypertension, plus the replacement of drinking water with saline and weekly administration of DOCA, a powerful mineralocorticoid in order to ensure that the salt present in the saline is retained in the rat. This was compared with a model used to induce vasoconstriction by infusing a powerful vasoconstrictor, angiotensin II. It was theorized that the use of an antagonist of MBG, resibufogenin (“RBG”) would ameliorate the hypertension in volume expanded animals and would have no effect on the rats infused with angiotensin II.
(§2) The test indicates the group of rats from a Sham (control) rat with measurements being taken initially and finally. It is noted that, in the NDS rats, which were subjected to nephrectomy and DOCA plus saline, there was no significant increase in the excretion of angiotensinogen. […] The RBG, as expected, also had no effect on the hypertension induced by angiotensin infusion.

[2] = test system: volume expansion model rats (nephrectomy DOCA saline); experiment: Volume expansion hypertension model (nephrectomy, DOCA, saline), urinary angiotensinogen excretion; format: in vivo, rat
Protocol: as §1, §2

Row | Compound | angiotensinogen excretion (in words) [1] | UAGT (Final) [1] | UAGT (Initial) [1] | increase in angiotensinogen (in words) ([2]; NDSR rats: nephrectomy, DOCA plus saline, treated with resibufogenin) | UAGT (Final) ([2]; male rats, nephrectomy DOCA saline model, final measurement, NDS without RBG 2.2 ± 0.3) | effect on the hypertension induced by angiotensin infusion ([1]; angiotensin II infused rats)
1 | angiotensin II (DRVYIHPF; Angiotensin-2; UniProt P01019 25-32, looked up) [powerful vasoconstrictor, an octapeptide, infused to induce vasoconstriction] | very substantial increase | 7.1 ± 0.5 nmol/day | 2.6 ± 0.2 nmol/day | – | – | –
2 | C[C@]12CC[C@H](O)C[C@H]1CC[C@@H]1[C@@H]2CC[C@]2(C)[C@@H](c3ccc(=O)oc3)C[C@H]3O[C@]132 [RBG, resibufogenin] | no effect | 7.8 ± 0.4 nmol/day | 2.6 ± 0.2 nmol/day | no meaningful increase | 2.0 ± 0.2 nmol/day | no effect

Reference: patent US20110044963A1, “Method of Testing a Patient for Hypertension and Related Method of Treatment and Test Kit” (priority 2009, published 2011)
